ChEMBL document CHEMBL6083252, “Synthesis and evaluation of novel tetrahydroisoquinoline-benzo[h]chromen-4-one conjugates as dual ABCB1/CYP1B1 inhibitors for overcoming MDR in cancer” (Bioorg Med Chem, 2024)
The source made the active and inactive calls. The calls are words filed in the database; no cut-off is given here.

Columns and labels:
SW620/AD300 [1] = test: Reversal of multidrug resistance in human SW620/AD300 cells assessed as decrease in doxorubicin IC50 at 5 uM in presence of doxorubicin (reference value: 11.10 +/- 1.61 uM); assay type: functional, cell-based
[2] = Reversal of docetaxel resistance in human DU-145 cells transfected with CYP1B1 assessed as decrease in docetaxel IC50 at 5 uM (reference value: 23.5 +/- 3.04 nM); assay type: functional, cell-based
Cytochrome P450 1B1 = target: T1, Cytochrome P450 1B1 (Homo sapiens, UniProt Q16678); test: Inhibition of recombinant human CYP1B1 at 0.5 uM using 7-Ethoxyresorufin as substrate incubated for 35 mins in presence of NADPH by microplate reader assay; assay type: ADME; settings: recombinant enzyme
T1 sequence (Q16678 whole entry): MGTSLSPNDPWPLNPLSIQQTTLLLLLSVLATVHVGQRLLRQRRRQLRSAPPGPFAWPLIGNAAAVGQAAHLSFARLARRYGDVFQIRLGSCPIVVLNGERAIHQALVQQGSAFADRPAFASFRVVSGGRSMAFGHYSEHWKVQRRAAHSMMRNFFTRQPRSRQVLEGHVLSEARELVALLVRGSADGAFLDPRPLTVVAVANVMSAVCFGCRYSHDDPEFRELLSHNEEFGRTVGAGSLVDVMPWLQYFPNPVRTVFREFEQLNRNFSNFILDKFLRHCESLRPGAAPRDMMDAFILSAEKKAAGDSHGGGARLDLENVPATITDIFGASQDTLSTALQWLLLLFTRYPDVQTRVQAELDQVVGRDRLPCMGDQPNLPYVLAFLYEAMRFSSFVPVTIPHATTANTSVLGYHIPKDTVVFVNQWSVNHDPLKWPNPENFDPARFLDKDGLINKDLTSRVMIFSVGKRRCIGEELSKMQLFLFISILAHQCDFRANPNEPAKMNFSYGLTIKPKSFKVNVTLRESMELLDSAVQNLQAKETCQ

SW620/AD300 [3] = test: Cytotoxicity against human SW620/AD300 cells assessed as inhibition of cell growth at 5 uM incubated for 48 hrs by CCK8 assay; assay type: functional; set-up: scale not given: the % may be the effect or the level left
DU-145 = test: Cytotoxicity against human DU-145 cells assessed as inhibition of cell growth at 5 uM incubated for 48 hrs by CCK8 assay; assay type: functional, cell-based
[4] = Reversal of drug resistance in human DOX-SW620/AD300-1B1 cells assessed as decrease in doxorubicin IC50 at 5 uM after 48 hrs in presence of doxorubicin by CCK8 assay (reference value: 64.5 +/- 30 uM); assay type: functional, cell-based; settings: DOX-SW620/AD300-1B1, 48 h
SW620/AD300 [5] = test: Reversal of multidrug resistance in human SW620/AD300 cells assessed as reversal fold by measuring ratio of doxorubicin IC50 to doxorubicin IC50 in presence of test compound at 5 uM; assay type: functional
[6] = target: ATP-dependent translocase ABCB1 (Homo sapiens, UniProt P08183); test: Inhibition of P-gp in human SW620/AD300 cells assessed as increase in intracellular Rh123 accumulation at 5 uM incubated for 4 hrs by flow cytometry analysis; assay type: cell-based; settings: sw620/ad300, 4 h
Chain of ATP-dependent translocase ABCB1 (P08183 whole entry): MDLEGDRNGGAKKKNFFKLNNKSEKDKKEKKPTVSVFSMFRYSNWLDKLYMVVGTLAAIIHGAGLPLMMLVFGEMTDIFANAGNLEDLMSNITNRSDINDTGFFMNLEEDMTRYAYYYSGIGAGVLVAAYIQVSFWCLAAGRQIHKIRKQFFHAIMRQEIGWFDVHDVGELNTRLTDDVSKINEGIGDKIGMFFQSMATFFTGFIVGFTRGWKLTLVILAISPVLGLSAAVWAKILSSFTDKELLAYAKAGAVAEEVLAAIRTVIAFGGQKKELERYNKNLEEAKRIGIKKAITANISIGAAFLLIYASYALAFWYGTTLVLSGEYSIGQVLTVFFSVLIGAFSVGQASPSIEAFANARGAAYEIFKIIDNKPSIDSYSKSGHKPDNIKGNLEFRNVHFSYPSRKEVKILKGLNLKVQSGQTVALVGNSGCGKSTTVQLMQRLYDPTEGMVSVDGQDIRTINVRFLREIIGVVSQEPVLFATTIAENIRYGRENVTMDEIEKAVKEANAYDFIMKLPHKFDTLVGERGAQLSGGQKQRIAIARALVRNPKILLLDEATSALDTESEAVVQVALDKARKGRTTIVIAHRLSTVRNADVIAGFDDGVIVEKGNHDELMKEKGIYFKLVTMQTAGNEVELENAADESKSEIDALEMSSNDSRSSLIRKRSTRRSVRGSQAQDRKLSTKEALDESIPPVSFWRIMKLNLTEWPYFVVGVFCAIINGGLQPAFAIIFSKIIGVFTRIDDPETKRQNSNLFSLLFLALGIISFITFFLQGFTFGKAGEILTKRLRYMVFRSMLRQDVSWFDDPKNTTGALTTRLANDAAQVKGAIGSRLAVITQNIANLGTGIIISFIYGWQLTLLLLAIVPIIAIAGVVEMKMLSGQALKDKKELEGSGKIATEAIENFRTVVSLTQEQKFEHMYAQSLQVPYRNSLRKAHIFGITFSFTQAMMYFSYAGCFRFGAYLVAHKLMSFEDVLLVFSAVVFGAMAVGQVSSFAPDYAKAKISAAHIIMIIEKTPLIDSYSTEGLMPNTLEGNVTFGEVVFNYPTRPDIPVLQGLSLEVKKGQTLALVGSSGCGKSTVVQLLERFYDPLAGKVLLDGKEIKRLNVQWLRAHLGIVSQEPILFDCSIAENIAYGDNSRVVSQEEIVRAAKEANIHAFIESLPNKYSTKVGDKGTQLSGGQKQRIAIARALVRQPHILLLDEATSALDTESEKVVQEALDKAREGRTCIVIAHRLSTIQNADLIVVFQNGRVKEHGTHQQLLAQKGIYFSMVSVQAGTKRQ

SW-620 = test: Cytotoxicity against human SW620 cells assessed as inhibition of cell growth at 5 uM incubated for 48 hrs by CCK8 assay; assay type: functional; set-up: scale not given: the % may be the effect or the level left
SW620/AD300 [7] = test: Downregulation of P-gp expression in human SW620/AD300 cells at 10 uM incubated for 24 hrs by immunofluorescence assay; assay type: functional, cell-based
[8] = system: MKN45-DDP-R (Cisplatin-resistant MKN45 cells); test: Reversal of cisplatin resistance in human MKN45-DDP-R cells expressing CYP1B1 at 5 uM in presence of cisplatin; assay type: functional, cell-based
SW620/AD300 [9] = test: Downregulation of P-gp expression in human SW620/AD300 cells upto 30 uM incubated for 24 hrs by Western blotting assay; assay type: functional, cell-based
[10] = system: MKN45-DDP-R (Cisplatin-resistant MKN45 cells); test: Inhibition of colony formation in human MKN45-DDP-R cells assessed as decrease in colony size incubated for 48 hrs followed by media replacement and cultured for 12 days by crystal violet staining based assay; assay type: functional, cell-based; settings: dose 1-3 µM
[11] = system: MKN45-DDP-R (Cisplatin-resistant MKN45 cells); test: Effect on lipid peroxidation level in human MKN45-DDP-R cells at 10 uM incubated for 24 hrs by BODIPY 581/591 C11 probe based flow cytometry assay; assay type: functional, cell-based
[12] = system: MKN45-DDP-R (Cisplatin-resistant MKN45 cells); test: Inhibition of cell migration in human MKN45-DDP-R cells at over 1 uM incubated for 24 hrs by scratch wound healing based inverted microscopic analysis; assay type: functional
SW620/AD300 [13] = test: Effect on P-gp protein expression in human SW620/AD300 cells at 5 uM incubated for 24 hrs by immunofluorescence assay; assay type: functional, cell-based
[14] = system: MKN45-DDP-R (Cisplatin-resistant MKN45 cells); test: Inhibition of colony formation in human MKN45-DDP-R cells assessed as decrease in colony number incubated for 48 hrs followed by media replacement and cultured for 12 days by crystal violet staining based assay; assay type: functional, cell-based; settings: dose 1-3 µM
[15] = Induction of apoptosis in human MKN45-DDP-R cells assessed as late apoptotic cells at 3 uM incubated for 48 hrs by Annexin V-FITC/PI staining based flow cytometry analysis (reference value: 0.89%); assay type: functional, MKN45-DDP-R (Cisplatin-resistant MKN45 cells)
[16] = Induction of apoptosis in human MKN45-DDP-R cells assessed as viable cells at 6 uM incubated for 48 hrs by Annexin V-FITC/PI staining based flow cytometry analysis (reference value: 94.7%); assay type: functional; settings: MKN45-DDP-R (Cisplatin-resistant MKN45 cells), read-out: Activity
[17] = system: MKN45-DDP-R (Cisplatin-resistant MKN45 cells); test: Upregulation of PUMA expression level in human MKN45-DDP-R cells at 6 to 12 uM incubated for 48 hrs by Western blotting assay; assay type: functional, cell-based; settings: dose 6-12 µM
[18] = Induction of apoptosis in human MKN45-DDP-R cells assessed as necrotic cells at 3 uM incubated for 48 hrs by Annexin V-FITC/PI staining based flow cytometry analysis (reference value: 0.76%); assay type: functional, MKN45-DDP-R (Cisplatin-resistant MKN45 cells)
[19] = Induction of apoptosis in human MKN45-DDP-R cells assessed as late apoptotic cells at 6 uM incubated for 48 hrs by Annexin V-FITC/PI staining based flow cytometry analysis (reference value: 0.89%); assay type: functional, MKN45-DDP-R (Cisplatin-resistant MKN45 cells)
[20] = Cytotoxicity against human MKN45-DDP-R cells assessed as inhibition of cell growth incubated for 48 hrs by CCK8 assay; assay type: functional, cell-based; settings: MKN45-DDP-R (Cisplatin-resistant MKN45 cells)
SW620/AD300 [21] = test: Cytotoxicity against human SW620/AD300 cells assessed as inhibition of cell growth incubated for 48 hrs by CCK8 assay; assay type: functional, cell-based; settings: SW620/AD300, 48 h
[22] = Induction of apoptosis in human MKN45-DDP-R cells assessed as early apoptotic cells at 6 uM incubated for 48 hrs by Annexin V-FITC/PI staining based flow cytometry analysis (reference value: 3.70%); assay type: functional, MKN45-DDP-R (Cisplatin-resistant MKN45 cells)
SW620/AD300 [23] = test: Effect on P-gp protein expression in human SW620/AD300 cells at 5 to 30 uM by Western blotting assay; assay type: functional, cell-based; settings: dose 5-30 µM
[24] = Induction of apoptosis in human MKN45-DDP-R cells assessed as viable cells at 3 uM incubated for 48 hrs by Annexin V-FITC/PI staining based flow cytometry analysis (reference value: 94.7%); assay type: functional; settings: MKN45-DDP-R (Cisplatin-resistant MKN45 cells), read-out: Activity
[25] = Induction of apoptosis in human MKN45-DDP-R cells assessed as early apoptotic cells at 3 uM incubated for 48 hrs by Annexin V-FITC/PI staining based flow cytometry analysis (reference value: 3.70%); assay type: functional, MKN45-DDP-R (Cisplatin-resistant MKN45 cells)
[26] = Induction of apoptosis in human MKN45-DDP-R cells assessed as necrotic cells at 6 uM incubated for 48 hrs by Annexin V-FITC/PI staining based flow cytometry analysis (reference value: 0.76%); assay type: functional, MKN45-DDP-R (Cisplatin-resistant MKN45 cells)
[27] = Cytotoxicity against human DOX-SW620/AD300-1B1 cells assessed as inhibition of cell growth incubated for 48 hrs by CCK8 assay; assay type: functional, cell-based; settings: DOX-SW620/AD300-1B1, 48 h

Row | SMILES | IC50 (SW620/AD300 [1]) | IC50 [2] | Activity (SW620/AD300 [3]) | Activity (DU-145) | Ratio IC50 (SW620/AD300 [5]) | Activity (SW-620) | also measured
1 | COc1ccc(C(=O)Nc2ccccc2C(=O)Nc2ccc(CCN3CCc4cc(OC)c(OC)cc4C3)cc2)cc1OC | 280 nM | 8.7 nM | 6.53% | Active; Lower Cytotoxicity Than Anf And Wk-X-38 | 39.6 | 8.91% | inhibition (INH) (Cytochrome P450 1B1): Active; IC50 [4]: 40000 nM; inhibition (INH) [6]: Active
2 | O=c1cc(-c2ccccc2)oc2c1ccc1ccccc12 [ALPHA-NAPHTHOFLAVONE] |  | 8.2 nM |  | Active; Lower Cytotoxicity Than Anf And Wk-X-39 |  |  | inhibition (INH) (Cytochrome P450 1B1): Active; IC50 [4]: 2400 nM
3 | COc1cc2c(cc1OC)CN(C(=O)c1cc(=O)c3cc(OC)c4ccccc4c3o1)CC2 | 7480 nM | 11.4 nM | 3.49% | Active; Lower Cytotoxicity Than Anf And Wk-X-35 | 1.4 | 4.62% | 
4 | COc1cc2c(cc1OC)CN(CCN1CCN(C(=O)c3cc(=O)c4ccc5ccccc5c4o3)CC1)CC2 | 660 nM |  | 15.35% |  | 16.8 | 11.06% | 
5 | COc1cc2c(cc1OC)CN(CCc1ccc(NC(=O)c3cc(=O)c4cc(OC)c5ccccc5c4o3)cc1)CC2 | 250 nM | 5.69 nM | 17.28% | Active; Lower Cytotoxicity Than Anf And Wk-X-36 | 44.4 | 32.77% | Activity (SW620/AD300 [7]): inactive; Activity [8]: Active; IC50 [4]: 4700 nM; Activity (SW620/AD300 [9]): inactive
6 | COc1cc2c(cc1OC)CN(CCNC(=O)c1cc(=O)c3ccc4ccccc4c3o1)CC2 | 5250 nM |  | 55.04% |  | 2.1 | 51.29% | inhibition [10]: Dose-dependent-effect; Activity [11]: inactive; inhibition [12]: Active; Activity (SW620/AD300 [13]): inactive; inhibition [14]: Dose-dependent-effect; Activity [15]: 3.37%; viability at 6 µM [16]: 58%; Activity [17]: Active; Activity [18]: 0.58%; Activity [19]: 6.41%; IC50 [20]: 6580 nM; IC50 (SW620/AD300 [21]): 9100 nM; Activity [22]: 34.9%; Activity (SW620/AD300 [23]): inactive; viability at 3 µM [24]: 81.1%; Activity [25]: 15%; Activity [26]: 0.73%
7 | COc1cc2c(cc1OC)CN(C(=O)c1cc(=O)c3ccc4ccccc4c3o1)CC2 | 6500 nM |  | 15.57% |  | 1.7 | 8.82% | 
8 | COc1cc2c(cc1OC)CN(C(=O)Cn1cc(-c3ccc(-c4cc(=O)c5ccc6ccccc6c5o4)cc3)nn1)CC2 | 2290 nM | 3.41 nM | 26.85% | Active; Lower Cytotoxicity Than Anf And Wk-X-37 | 4.8 | 22.19% | Activity [8]: Active
9 | COc1cc2c(cc1OC)CN(C(=O)C1CCN(C(=O)c3cc(=O)c4ccc5ccccc5c4o3)CC1)CC2 | 840 nM |  | 14.46% |  | 13.2 | 26.93% | 
10 | COc1cc2c(cc1OC)CN(CCc1ccc(NC(=O)c3ccccc3NC(=O)c3cc(=O)c4ccc5ccccc5c4o3)cc1)CC2 | 320 nM | 9.6 nM | 7.13% | Active; Lower Cytotoxicity Than Anf And Wk-X-34 | 34.7 | 13.34% | Activity (SW620/AD300 [7]): inactive; Activity (SW620/AD300 [9]): inactive
11 | COc1cc2c(cc1OC)CN(CCc1ccc(NC(=O)c3cc(=O)c4ccc5ccccc5c4o3)cc1)CC2 | 400 nM |  | 20.08% |  | 27.8 | 13.57% | 
12 | COc1cc2c(cc1OC)CN(C(=O)C1CCN(C(=O)c3cc(=O)c4cc(OC)c5ccccc5c4o3)CC1)CC2 | 2200 nM |  | 4.05% |  | 5 | 13.03% | 
13 | COc1cccc2c1C(=O)c1c(O)c3c(c(O)c1C2=O)C[C@@](O)(C(=O)CO)C[C@@H]3O[C@H]1C[C@H](N)[C@H](O)[C@H](C)O1 [DOXORUBICIN] |  |  |  |  |  | 0.29% | IC50 [27]: 64500 nM; IC50 (SW620/AD300 [21]): 11100 nM
14 | COc1cc2c(cc1OC)CN(CCNC(=O)c1cc(=O)c3cc(OC)c4ccccc4c3o1)CC2 | 470 nM |  | 34.64% |  | 23.6 | 28.94% | 
